Experimental data published in US4000269A, “S-(α-substituted-arylmethylthio, -arylmethylsulfinyl, and -arylmethylsulfonyl)methyl phosphorus esters used as insecticides” (priority 1975, dated 1976).
Where two headings read alike, the source gives them in different places.

Experiments:
[1] = system: False wireworm larvae (Eleodes suturalis); assay: False Wireworm Control (treated soil, dust on talc); type: in vivo; conditions: 144 h, potting soil, mortality after 6 days, read-out: Percent Control of False Wireworms; for mortality at 1120.85 g/ha: 1 lbs./Acre; for mortality at 11208.5 g/ha: 10 lbs./Acre; for mortality at 56042.5 g/ha: 50 lbs./Acre
Procedure: (§1) Compounds are prepared as dusts on talc. The compounds are dissolved in acetone, and appropriate rates obtained by serial dilution. One and one-quarter milliliters of solution is pipetted onto a standard volume of dust in 1 -ounce jars, and the acetone allowed to evaporate. Twenty-five milliliters of moist soil and about three wheat seeds are placed in the jar, capped, and the contents thoroughly mixed. Ten False wireworm larvae (Eleodes suturalis ), 10 days old, are then placed in each jar. Mortality counts are made after 6 days and percent mortality determined.

[2] = system: Southern corn rootworm larvae (Diabrotica undecimpunctata); assay: Southern Corn Rootworm Control (treated soil, dust on talc); type: in vivo; conditions: 144 h, potting soil, mortality after 6 days, read-out: Percent Control of Southern Corn Rootworm Larvae; for mortality at 1120.85 g/ha: 1 lbs./Acre; for mortality at 11208.5 g/ha: 10 lbs./Acre; for mortality at 56042.5 g/ha: 50 lbs./Acre
Procedure: as §1, with “200 millet” for “three wheat”, “capped” for “capped,”, “second-instar” for “False wireworm”, “of the Southern corn rootworm (Diabrotica undecimpunctata )” for “(Eleodes suturalis ), 10 days old,”

[3] = Mammalian Toxicity Studies (LD50 for Mice); design: species or system mice (Carworth Farms Nelson, CFI strain); conditions: mouse, in vivo; 14-day observation; corn oil
Procedure: (§2) Twenty male albino rats or mice of the Carworth Farms Nelson strain (CFI strain for mice)(or other suitable strain) weighing approximately 90 to 120 grams (18-20g. for mice) are selected. Basically, these animals are fasted 24 hours before dosing. Mice are not fasted.
(§3) For materials which are soluble or easily dispersed in an aqueous medium, a 20% solution or suspension is prepared in an aqueous solution of 0.2% agar and 0.1% "Tween" 80. The same series of dosages (grams or milliliters of material per kilogram of animal body weight) are used for all materials in this test. If no previous information is available on the compound or its analogs, a maximum dosage of 10 g/kg is selected to differ by a geometric factor of 2 from the preceding dose, i.e., 10, 5, 2.5, 1.25 g/kg. A sufficient number of dosages are given so as to bracket a 50% response. The animals are observed for several hours after dosing and daily over a 14-day observation period. At the end of this period the survivors are sacrificed, weighed and subjected to a gross autopsy. The results are tabulated and the LD50 is calculated by the method of moving averages using the tables constructed by Weil. [Weil, C. S., Biometrics, 8: (3), 249-263, 1952].
(§4) Samples received as liquids may be administered undiluted or as suspensions in aqueous Agar-Tween, depending on the viscosity of the material. If the material is believed to be relatively non-toxic, an initial maximum dosage of 10 ml/kg is selected and subsequent dosages are selected based upon the severity of gross signs of toxicity.
(§5) For organic phosphate anticholinesterase insecticides, the procedure is modified somewhat. The phosphates are readied for administration by preparing a solution or dispersion in corn oil (Mazola), the concentration of which is adjusted so that the total volume of the dose is 20 ml/kg ([…]) in every case. The initial solution is prepared by deciding upon the maximum dosage in mg/kg to be administered and preparing 50 ml. (10 in mouse test) of this solution of such a concentration that the desired dosage in mg/kg is delivered when 2 ml. (0.5 ml. in mouse test) of the solution is administered for 100 g (20 g in mouse) of rat body weight. Serial dilutions differing by a factor of two are then prepared for each lower dosage level.

[4] = Mammalian Toxicity Studies (LD50 for Rats); design: species or system male albino rats (Carworth Farms Nelson strain); conditions: rat, in vivo; 14-day observation; corn oil
Procedure: as §2, §3, §4, §5

Mites = assay: Cut-Stem Systemic Test (Mites); type: in vivo; conditions: 100 ppm. emulsion, 3 days
Procedure: (§6) The compound to be tested is formulated as an emulsion containing 0.1 gram of test material, 0.2 gram of Alrodyne 315 emulsifier, 10 ml. of acetone and 90 ml. of water. This is diluted tenfold with water to give a 100 ppm. emulsion for the initial test. A sieva lima bean plant with only the primary leaves unfolded is cut off just above soil level and inserted into a 2-ounce bottle of 100 ppm. emulsion and held in place by a bit of cotton wrapped around the stem. The bottle is then placed in a ventilated box with the leaves extending outside the box, such that any possible fumes from the compound will be drawn out the end of the box rather than rising to affect the test leaves. After holding 3 days at 80° F. and 60% R.H., one leaf from each plant is placed on a moist filter paper in the bottom of a petri dish. Ten third-instar Southern armyworm larvae are then added to each dish and mortality counts made after holding another 3 days at 80° F. and 60% R.H.
The same procedure described above is employed in the mite systemic evaluation excepting that the sieva lima bean leaves are infested with mites, both adult and nymphs, while the leaves are in the ventilated box. After 3 days the leaves are removed and examined under a microscope to determine percent mortality. Data obtained are reported in the Table IV below where it can be seen that the compounds of the present invention are systemically effective insecticidal agents.

Southern armyworm larvae = assay: Cut-Stem Systemic Test (Southern Armyworm); type: in vivo; conditions: Spodoptera eridania, 72 h, read-out: % Mortality, Southern Armyworms (Systemic Insecticidal Activity)
Procedure: as §6

Rats = system: Rats; design: unit not given here; conditions: Value reported in the literature; 20160 min; cited from earlier work
[5] = cut-stem, 100 ppm. emulsion, larvae held 3 days

SMILES	mortality at 1120.85 g/ha [1]	mortality at 11208.5 g/ha [1]	mortality at 56042.5 g/ha [1]	mortality at 1120.85 g/ha [2]	mortality at 11208.5 g/ha [2]	mortality at 56042.5 g/ha [2]	LD50 at 336 h [3]	LD50 at 336 h [4]	% Mortality, Mites (Systemic Insecticidal Activity) (Mites)	mortality at 100 µg/mL (Southern armyworm larvae)	mortality at 100 µg/mL (Southern armyworm larvae; [5])	LD50 Rats (Rats)
CCOP(=S)(OCC)SCSC(C)(C)c1ccccc1 [Example 2, S-(α,α-Dimethylbenzylthio)methyl O,O-Diethyl Phosphorodithioate]	0%	100%	100%	90%	100%	100%	71 mg/kg	18 mg/kg	80%	100%	–	–
COP(=S)(OC)SCSC(C)(C)c1ccccc1 [Example 5, S-(α,α-Dimethylbenzylthio)methyl O,O-Dimethyl Phosphorodithioate]	100%	100%	100%	100%	100%	100%	117 mg/kg	28 mg/kg	–	–	–	–
CCOP(=S)(OCC)SCSC(C)(C)c1ccc(Cl)cc1 [Example 6, S-(p-Chloro-α,α-Dimethylbenzylthio)methyl O,O-Diethyl Phosphorodithioate]	–	–	–	0%	90%	100%	–	79 mg/kg	–	–	–	–
COP(=S)(OC)SCSC(C)(C)c1ccc(Cl)cc1 [Example 7, S-(p-Chloro-α,α-dimethylbenzylthio)methyl O,O-Dimethyl Phosphorodithioate]	–	–	–	100%	100%	100%	–	230 mg/kg	100%	–	100%	–
CCOP(=S)(OCC)SCSC(C)(C)c1ccc(Cl)c(Cl)c1 [Example 8, S-(3,4-Dichloro-α,α-dimethylbenzylthio)methyl O,O-Diethyl Phophorodithioate]	–	–	–	–	–	–	–	100 mg/kg	100%	–	100%	–
COP(=S)(OC)SCSC(C)(C)c1ccc(Cl)c(Cl)c1 [Example 11, S-(3,4-Dichloro-α,α-dimethylbenzylthio)methyl O,O-Dimethyl Phosphorodithioate]	–	–	–	100%	100%	100%	–	> 200 mg/kg	30%	–	90%	–
CCCSP(=O)(OCC)SCSC(C)(C)c1ccccc1 (stereo not drawn) [Example 12, S-(α,α-Dimethylbenzylthio)methyl O-Ethyl S-Propyl Phosphorodithioate]	–	–	–	0%	100%	100%	–	34 mg/kg	90%	–	0%	–
COP(=S)(OC)SCSC(C)(C)c1ccc(Br)cc1 [Example 13, S-(p-Bromo-α,α-dimethylbenzylthio)methyl O,O-Dimethyl Phosphordithioate]	–	–	–	90%	100%	100%	–	280 mg/kg	100%	–	100%	–
CCOP(=S)(OCC)SCSC(C)c1ccccc1 (stereo not drawn) [Example 15, S-(α-Methylbenzylthio)methyl O,O-Diethyl Phosphorodithioate]	0%	100%	100%	80%	100%	100%	67 mg/kg	–	–	–	–	–
COP(=O)(SC)SCSC(C)(C)c1ccc(Cl)cc1 (stereo not drawn) [Example 16, S-(p-Chloro-α,α-dimethylbenzylthio)methyl O-Methyl S-Methyl Phosphorodithioate]	–	–	–	0%	100%	100%	–	–	30%	–	0%	–
CC(C)OP(=S)(OC(C)C)SCSC(C)(C)c1ccccc1 [Example 20, S-(α,α-Dimethylbenzylthio)methyl O,O-diisopropylPhosphorodithioate]	–	0%	100%	–	0%	100%	–	–	–	–	–	–
COP(=S)(OC)SCSC(C)(C)c1cccc(Cl)c1Cl [Example 23, S-(2,3-Dichloro-α,α-dimethylbenzylthio)methyl O,O-Dimethyl Phosphorodithioate]	–	–	–	60%	90%	100%	–	> 500 mg/kg	–	–	–	–
COP(=S)(OC)SCSC(C)(C)c1cc(Cl)ccc1Cl [Example 25, S-(2,5-Dichloro-α,α-dimethylbenzylthio)methyl O,O-Dimethyl Phosphorodithioate]	–	–	–	0%	100%	100%	–	800 mg/kg	–	–	–	–
CCOP(=S)(OCC)SC[S+]([O-])C(C)(C)c1ccccc1 (stereo not drawn) [Example 27, S-(α,α-Dimethylbenzylsulfinyl)methyl O,O-Diethyl Phosphorodithioate]	0%	100%	100%	0%	100%	100%	88 mg/kg	–	–	–	–	–
CCOP(=S)(OCC)SCSCC [reference compound]	–	–	–	–	–	–	5.6 mg/kg	1 to 5 mg/kg	–	–	–	–
CCOP(=S)(OCC)SCSCc1ccccc1 [reference compound]	–	–	–	–	–	–	67 mg/kg	–	–	–	–	25
